From PubChem BioAssay AID2060616 (Molecular Pharmacology Branch, DTP, NCI, 2025)
Values joined by “and” are separate entries in the source; they are usually repeats but may differ in a detail not shown here. Identical values can stand only once. Blank lines part the entries; values can stand above or below the compound they belong to.

System: 377384-186-R-J1-PDC complex spheroid viability
Assay: Anticancer human tumor 377384-186-R-J1-PDC patient-derived pancreatic carcinoma cell line growth inhibition [CLK]
Details: for viability, T/C: stronger effect = lower value
In short: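 Patient-derived tumor cells grown as complex spheroids with HUVEC endothelial cells and mesenchymal stem cells, treated with drug combinations. Concentrations descend in half-log steps from near clinical Cmax, or from 10 microM if Cmax unknown.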

[1] = curve of first compound, second compound 0.0316 µM
[2] = curve of first compound, second compound 0.1 µM
[3] = curve of first compound, second compound 0.316 µM
[4] = curve of first compound, second compound 1 µM
[5] = curve of first compound, second compound 3.16 µM
[6] = curve of first compound, second compound 10 µM
[7] = second compound 0.0316 µM, first compound 0.00316 µM
[8] = second compound 0.0316 µM, first compound 0.01 µM
[9] = second compound 0.0316 µM, first compound 0.0316 µM
[10] = second compound 0.0316 µM, first compound 0.1 µM
[11] = second compound 0.1 µM, first compound 0.00316 µM
[12] = second compound 0.1 µM, first compound 0.01 µM
[13] = second compound 0.1 µM, first compound 0.0316 µM
[14] = second compound 0.1 µM, first compound 0.1 µM
[15] = second compound 0.316 µM, first compound 0.00316 µM
[16] = second compound 0.316 µM, first compound 0.01 µM
[17] = second compound 0.316 µM, first compound 0.0316 µM
[18] = second compound 0.316 µM, first compound 0.1 µM
[19] = second compound 1 µM, first compound 0.00316 µM
[20] = second compound 1 µM, first compound 0.01 µM
[21] = second compound 1 µM, first compound 0.0316 µM
[22] = second compound 1 µM, first compound 0.1 µM
[23] = second compound 3.16 µM, first compound 0.00316 µM
[24] = second compound 3.16 µM, first compound 0.01 µM
[25] = second compound 3.16 µM, first compound 0.0316 µM
[26] = second compound 3.16 µM, first compound 0.1 µM
[27] = second compound 10 µM, first compound 0.00316 µM
[28] = second compound 10 µM, first compound 0.01 µM
[29] = second compound 10 µM, first compound 0.0316 µM
[30] = second compound 10 µM, first compound 0.1 µM
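Further: spheroids exposed to agents for 7 days before reading.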
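Wherever viability, T/C is given: luminescence signal used as a stand-in for viable cells.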

IC50 [1]: > 100 nM
IC50 [2]: < 0.316 nM
IC50 [3]: < 0.316 nM
IC50 [4]: < 0.316 nM
IC50 [5]: < 0.316 nM
IC50 [6]: < 0.316 nM
Compound: Cn1ncnc1[C@H]1c2n[nH]c(=O)c3cc(F)cc(c23)N[C@@H]1c1ccc(F)cc1 + CNC(=O)c1ccc(Nc2nc(OC3CCCC3)c3c(-c4ccc5nc(C)oc5c4)c[nH]c3n2)c(OC)c1
viability, T/C (second compound 0.0316 µM, first compound 0.000316 µM): 91.7%
viability, T/C (second compound 0.0316 µM, first compound 0.001 µM): 87.6%
viability, T/C [7]: 61.8%
viability, T/C [8]: 56.3%
viability, T/C [9]: 53.6%
viability, T/C [10]: 48.8%
viability, T/C (second compound 0.1 µM, first compound 0.000316 µM): 48.7%
viability, T/C (second compound 0.1 µM, first compound 0.001 µM): 42.7%
viability, T/C [11]: 36.5%
viability, T/C [12]: 39%
viability, T/C [13]: 34.3%
viability, T/C [14]: 28.7%
viability, T/C (second compound 0.316 µM, first compound 0.000316 µM): 16.8%
viability, T/C (second compound 0.316 µM, first compound 0.001 µM): 18.2%
viability, T/C [15]: 19.2%
viability, T/C [16]: 17.4%
viability, T/C [17]: 16%
viability, T/C [18]: 14.9%
viability, T/C (second compound 1 µM, first compound 0.000316 µM): 21.5%
viability, T/C (second compound 1 µM, first compound 0.001 µM): 18.2%
viability, T/C [19]: 17.6%
viability, T/C [20]: 15.9%
viability, T/C [21]: 15.6%
viability, T/C [22]: 15.6%
viability, T/C (second compound 3.16 µM, first compound 0.000316 µM): 16.9%
viability, T/C (second compound 3.16 µM, first compound 0.001 µM): 18.6%
viability, T/C [23]: 17.3%
viability, T/C [24]: 20%
viability, T/C [25]: 15.6%
viability, T/C [26]: 15.3%
viability, T/C (second compound 10 µM, first compound 0.000316 µM): 18.7%
viability, T/C (second compound 10 µM, first compound 0.001 µM): 17.5%
viability, T/C [27]: 20.7%
viability, T/C [28]: 16.4%
viability, T/C [29]: 18.5%
viability, T/C [30]: 14.8%

IC50 (compound alone, run of 07/31/2023): 220 nM [middle of 9 runs]
Compound: CN1CCN(c2cc(C(=O)Nc3cc4cc(-c5cnn(C)c5)ccc4cn3)ccn2)CC1
viability, T/C (compound 0.0316 µM): 102% [middle of 12 runs]
viability, T/C (compound 0.1 µM): 103% [middle of 12 runs]
viability, T/C (compound 0.316 µM): 25.7% [middle of 12 runs]
viability, T/C (compound 1 µM): 1.33% [middle of 12 runs]
viability, T/C (compound 3.16 µM): 0.96% [middle of 11 runs]
viability, T/C (compound 10 µM): 0.49% [middle of 11 runs]

More lines, now with the values behind:

Compound: CCc1c2c(nc3ccc(O)cc13)-c1cc3c(c(=O)n1C2)COC(=O)[C@]3(O)CC + CN1CCN(c2cc(C(=O)Nc3cc4cc(-c5cnn(C)c5)ccc4cn3)ccn2)CC1
IC50 [1]: < 3.16 nM
IC50 [2]: < 3.16 nM
IC50 [3]: < 3.16 nM
IC50 [4]: < 3.16 nM
IC50 [5]: < 3.16 nM
IC50 [6]: < 3.16 nM
viability, T/C [7]: 38.2%
viability, T/C [8]: 16.4%
viability, T/C [9]: 9%
viability, T/C [10]: 3.5%
viability, T/C (second compound 0.0316 µM, first compound 0.316 µM): 2%
viability, T/C (second compound 0.0316 µM, first compound 1 µM): 0.73%
viability, T/C [11]: 31.7%
viability, T/C [12]: 18.6%
viability, T/C [13]: 8.13%
viability, T/C [14]: 3.62%
viability, T/C (second compound 0.1 µM, first compound 0.316 µM): 1.47%
viability, T/C (second compound 0.1 µM, first compound 1 µM): 0.71%
viability, T/C [15]: 18.3%
viability, T/C [16]: 15%
viability, T/C [17]: 7.22%
viability, T/C [18]: 4.37%
viability, T/C (second compound 0.316 µM, first compound 0.316 µM): 1.79%
viability, T/C (second compound 0.316 µM, first compound 1 µM): 0.66%
viability, T/C [19]: 0.56%
viability, T/C [20]: 0.36%
viability, T/C [21]: 1.07%
viability, T/C [22]: 0.19%
viability, T/C (second compound 1 µM, first compound 0.316 µM): 0.14%
viability, T/C (second compound 1 µM, first compound 1 µM): 0.3%
viability, T/C [23]: 0.23%
viability, T/C [24]: 0.3%
viability, T/C [25]: 0.53%
viability, T/C [26]: 0.25%
viability, T/C (second compound 3.16 µM, first compound 0.316 µM): 0.38%
viability, T/C (second compound 3.16 µM, first compound 1 µM): 0.85%
viability, T/C [27]: 0.27%
viability, T/C [28]: 1.05%
viability, T/C [29]: 0.38%
viability, T/C [30]: 0.27%
viability, T/C (second compound 10 µM, first compound 0.316 µM): 0.23%
viability, T/C (second compound 10 µM, first compound 1 µM): 0.35%

Compound: COc1c(OCCCN2CCOCC2)ccc2c3n(c(=NC(=O)c4cnc(N)nc4)nc12)CCN3
viability, T/C (compound 0.00316 µM): 89.6% and 77.6%
viability, T/C (compound 0.01 µM): 72.4% and 61.6%
viability, T/C (compound 0.0316 µM): 50% and 52.3%
viability, T/C (compound 0.1 µM): 34.4% and 30.3%
viability, T/C (compound 0.316 µM): 22.4% and 22.7%
viability, T/C (compound 1 µM): 14.3% and 13.8%
IC50 (curve of compound): 34.4 nM and 28.3 nM

Compound: NC(=O)C(=Cn1cnc(-c2cc(C(F)(F)F)cc(C(F)(F)F)c2)n1)c1cncnc1 + CN1CCN(c2cc(C(=O)Nc3cc4cc(-c5cnn(C)c5)ccc4cn3)ccn2)CC1
IC50 [1]: 99.6 nM
IC50 [2]: 50.5 nM
IC50 [3]: < 9.49 nM
IC50 [4]: < 9.49 nM
IC50 [5]: < 9.49 nM
IC50 [6]: < 9.49 nM
viability, T/C (second compound 0.0316 µM, first compound 0.00949 µM): 81.1%
viability, T/C (second compound 0.0316 µM, first compound 0.03 µM): 76%
viability, T/C (second compound 0.0316 µM, first compound 0.0949 µM): 50.1%
viability, T/C (second compound 0.0316 µM, first compound 0.3 µM): 21.7%
viability, T/C (second compound 0.0316 µM, first compound 0.949 µM): 5.88%
viability, T/C (second compound 0.0316 µM, first compound 3 µM): 2%
viability, T/C (second compound 0.1 µM, first compound 0.00949 µM): 87.6%
viability, T/C (second compound 0.1 µM, first compound 0.03 µM): 63.4%
viability, T/C (second compound 0.1 µM, first compound 0.0949 µM): 33.6%
viability, T/C (second compound 0.1 µM, first compound 0.3 µM): 14.3%
viability, T/C (second compound 0.1 µM, first compound 0.949 µM): 3.11%
viability, T/C (second compound 0.1 µM, first compound 3 µM): 1.52%
viability, T/C (second compound 0.316 µM, first compound 0.00949 µM): 21.2%
viability, T/C (second compound 0.316 µM, first compound 0.03 µM): 15%
viability, T/C (second compound 0.316 µM, first compound 0.0949 µM): 8.59%
viability, T/C (second compound 0.316 µM, first compound 0.3 µM): 1.27%
viability, T/C (second compound 0.316 µM, first compound 0.949 µM): 1.18%
viability, T/C (second compound 0.316 µM, first compound 3 µM): 2%
viability, T/C (second compound 1 µM, first compound 0.00949 µM): 0.39%
viability, T/C (second compound 1 µM, first compound 0.03 µM): 0.58%
viability, T/C (second compound 1 µM, first compound 0.0949 µM): 1.29%
viability, T/C (second compound 1 µM, first compound 0.3 µM): 1.21%
viability, T/C (second compound 1 µM, first compound 0.949 µM): 2.26%
viability, T/C (second compound 1 µM, first compound 3 µM): 2.39%
viability, T/C (second compound 3.16 µM, first compound 0.00949 µM): 0.7%
viability, T/C (second compound 3.16 µM, first compound 0.03 µM): 1.97%
viability, T/C (second compound 3.16 µM, first compound 0.0949 µM): 1.72%
viability, T/C (second compound 3.16 µM, first compound 0.3 µM): 1.71%
viability, T/C (second compound 3.16 µM, first compound 0.949 µM): 1.82%
viability, T/C (second compound 3.16 µM, first compound 3 µM): 2.81%
viability, T/C (second compound 10 µM, first compound 0.00949 µM): 0.61%
viability, T/C (second compound 10 µM, first compound 0.03 µM): 0.97%
viability, T/C (second compound 10 µM, first compound 0.0949 µM): 1.5%
viability, T/C (second compound 10 µM, first compound 0.3 µM): 0.79%
viability, T/C (second compound 10 µM, first compound 0.949 µM): 0.88%
viability, T/C (second compound 10 µM, first compound 3 µM): 0.91%
